Active and inactive are the calls of the source. The rule behind the calls is not given here.
Tests used:
Human coronavirus 229E [1] = assay: Antiviral activity against HCoV-229E; assay type: functional, organism-based
Human coronavirus OC43 [2] = assay: Antiviral activity against HCoV-OC43; assay type: functional, organism-based
Human coronavirus OC43 [3] = assay: Antiviral activity against HCoV-OC43 at replication stage in human Huh-7 cells assessed as dsRNA level at 2 uM treated immediately after infection incubated for 4 to 10 hrs by immunofluorescence based analysis; assay type: functional, organism-based; settings: time 4-10 hrs
Human coronavirus OC43 [4] = assay: Antiviral activity against HCoV-OC43 infected in human NCI-H460 cells incubated for 72 hrs by CCK8 assay; assay type: functional, organism-based; settings: Betacoronavirus 1, NCI-H460, 72 h
[5] = Cytotoxicity against human NCI-H460 cells incubated for 72 hrs by CCK8 assay; assay type: toxicity, cell-based; settings: read-out: EC50
DIS3-like exonuclease 2 = target: T1, DIS3-like exonuclease 2 (Homo sapiens, UniProt Q8IYB7); assay: (§1) Binding affinity to DIS3L2 (unknown origin) assessed as dissociation constant by SPR analysis
T1 sequence (Q8IYB7 whole entry): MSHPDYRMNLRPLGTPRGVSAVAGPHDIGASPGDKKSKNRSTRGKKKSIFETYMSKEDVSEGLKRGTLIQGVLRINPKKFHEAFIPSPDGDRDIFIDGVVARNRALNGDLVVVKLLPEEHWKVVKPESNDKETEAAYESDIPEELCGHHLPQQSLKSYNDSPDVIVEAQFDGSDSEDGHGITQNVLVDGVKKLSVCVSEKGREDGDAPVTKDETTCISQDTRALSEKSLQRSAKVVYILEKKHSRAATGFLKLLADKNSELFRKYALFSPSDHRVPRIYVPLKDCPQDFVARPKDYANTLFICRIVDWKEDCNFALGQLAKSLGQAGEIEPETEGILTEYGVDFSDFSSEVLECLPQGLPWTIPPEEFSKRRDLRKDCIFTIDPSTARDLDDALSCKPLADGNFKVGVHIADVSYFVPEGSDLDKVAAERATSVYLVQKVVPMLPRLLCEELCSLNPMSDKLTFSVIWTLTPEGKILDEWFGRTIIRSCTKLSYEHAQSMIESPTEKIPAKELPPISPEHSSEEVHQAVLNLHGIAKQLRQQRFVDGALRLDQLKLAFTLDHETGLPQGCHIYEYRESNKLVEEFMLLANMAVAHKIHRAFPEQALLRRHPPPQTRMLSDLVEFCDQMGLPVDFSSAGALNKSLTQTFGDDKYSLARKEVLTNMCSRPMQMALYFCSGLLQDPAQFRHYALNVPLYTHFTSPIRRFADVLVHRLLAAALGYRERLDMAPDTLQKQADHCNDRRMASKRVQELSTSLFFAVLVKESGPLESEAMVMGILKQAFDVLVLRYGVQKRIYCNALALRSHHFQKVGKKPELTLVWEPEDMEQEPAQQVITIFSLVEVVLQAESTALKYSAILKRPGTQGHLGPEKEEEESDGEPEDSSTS

[6] = target: T2, DIS3-like exonuclease 2 (Homo sapiens) (UniProt Q8IYB7); assay: as §1
T2 sequence (whole entry): T1 sequence (Q8IYB7 whole entry)

[7] = target: T2, DIS3-like exonuclease 2 (Homo sapiens); assay: Binding affinity to DIS3L2 in human NCI-H460 cells assessed as increase in thermal stability at 10 uM incubated for 6 hrs followed by heat exposure at 55 to 75 degreeC for 3 mins by CETSA; assay type: cell-based; settings: time 363.0 min
Human coronavirus 229E [8] = assay: Antiviral activity against HCoV-229E at replication stage in human Huh-7 cells assessed as dsRNA level at 2 uM treated immediately after infection incubated for 4 to 10 hrs by immunofluorescence based analysis; assay type: functional, organism-based; settings: time 4-10 hrs
FSE RNA pseudoknot = assay: Binding affinity to CM5 chip-immobilized coronavirus FSE RNA pseudoknot assessed as dissociation constant by SPR analysis; assay type: nucleic-acid assay, unidentified human coronavirus
[9] = Selectivity index, ratio of CC50 for cytotoxicity against human NCI-H460 cells to EC50 for antiviral activity against HCoV-OC43 infected in human NCI-H460 cells; assay type: toxicity, cell-based, NCI-460; settings: read-out: Ratio CC50/EC50

Molecule	EC50 (Human coronavirus 229E [1]; Human coronavirus 229E) [µM]	EC50 (Human coronavirus OC43 [2]; Betacoronavirus 1) [µM]	EC50 (Human coronavirus OC43 [4]) [µM]	CC50 at 72 h [5] [µM]	selectivity ratio [9]	further results
CO[C@@H]1[C@@H](O[C@@H]2O[C@H](C)[C@@H](O[C@H]3C[C@@](C)(O)[C@@H](OC(=O)CC(C)C)[C@H](C)O3)[C@H](N(C)C)[C@H]2O)[C@@H](CC=O)C[C@@H](C)[C@@H](O[C@H]2CC[C@H](N(C)C)[C@@H](C)O2)/C=C/C=C/C[C@@H](C)OC(=O)C[C@H]1OC(C)=O	6.38	11.8				
SPIRAMYCIN						EC50 (Human coronavirus 229E [1]): 29.3 µM; EC50 (Human coronavirus OC43 [2]): > 50 µM
CCC(=O)O[C@@H]1CC(=O)O[C@H](C)C/C=C/C=C/[C@H](O[C@H]2CC[C@H](N(C)C)[C@@H](C)O2)[C@H](C)C[C@H](CC=O)[C@H](O[C@@H]2O[C@H](C)[C@@H](O[C@H]3C[C@@](C)(O)[C@@H](O)[C@H](C)O3)[C@H](N(C)C)[C@H]2O)[C@H]1OC	27.4	> 50				
CO[C@@H]1[C@@H](O[C@@H]2O[C@H](C)[C@@H](O[C@H]3C[C@@](C)(O)[C@@H](OC(=O)Cc4ccc(Cl)cc4)[C@H](C)O3)[C@H](N(C)C)[C@H]2O)[C@@H](CC=O)C[C@@H](C)[C@@H](O[C@H]2CC[C@H](N(C)C)[C@@H](C)O2)/C=C/C=C/C[C@@H](C)OC(=O)C[C@H]1O			0.85	17.4	20.5	Activity (Human coronavirus OC43 [3]): Active; Kd (DIS3-like exonuclease 2): 4.67 µM; Activity [6]: Dose-dependent-effect; Activity [7]: Active; Activity (Human coronavirus 229E [8]): Active; Kd (FSE RNA pseudoknot): 7.29 µM; Activity (FSE RNA pseudoknot; unidentified human coronavirus): Dose-dependent-effect
CO[C@@H]1[C@@H](O[C@@H]2O[C@H](C)[C@@H](O[C@H]3C[C@@](C)(O)[C@@H](O)[C@H](C)O3)[C@H](N(C)C)[C@H]2O)[C@@H](CC=O)C[C@@H](C)[C@@H](O[C@H]2CC[C@H](N(C)C)[C@@H](C)O2)/C=C/C=C/C[C@@H](C)OC(=O)C[C@H]1OC(C)=O	25.4	> 50				
CCC(=O)O[C@@H]1CC(=O)O[C@H](C)C/C=C/C=C/[C@H](O[C@H]2CC[C@H](N(C)C)[C@@H](C)O2)[C@H](C)C[C@H](CC=O)[C@H](O[C@@H]2O[C@H](C)[C@@H](O[C@H]3C[C@@](C)(O)[C@@H](OC(=O)CC(C)C)[C@H](C)O3)[C@H](N(C)C)[C@H]2O)[C@H]1OC	3.52	10.2				
CO[C@@H]1[C@@H](O[C@@H]2O[C@H](C)[C@@H](O[C@H]3C[C@@](C)(O)[C@@H](OC(=O)CC(C)C)[C@H](C)O3)[C@H](N(C)C)[C@H]2O)[C@@H](CC=O)C[C@@H](C)[C@@H](O[C@H]2CC[C@H](N(C)C)[C@@H](C)O2)/C=C/C=C/C[C@@H](C)OC(=O)C[C@H]1O	3.61	5.95				
CCC(=O)O[C@H]1[C@H](O[C@H]2[C@@H](CC=O)C[C@@H](C)[C@@H](O[C@H]3CC[C@H](N(C)C)[C@@H](C)O3)/C=C/C=C/C[C@@H](C)OC(=O)C[C@@H](O)[C@@H]2OC)O[C@H](C)[C@@H](O[C@H]2C[C@@](C)(O)[C@@H](O)[C@H](C)O2)[C@@H]1N(C)C			23.4	> 161	> 6.9	
CO[C@@H]1[C@@H](O[C@@H]2O[C@H](C)[C@@H](O[C@H]3C[C@@](C)(O)[C@@H](O)[C@H](C)O3)[C@H](N(C)C)[C@H]2OC(=O)C2CCCCC2)[C@@H](CC=O)C[C@@H](C)[C@@H](O[C@H]2CC[C@H](N(C)C)[C@@H](C)O2)/C=C/C=C/C[C@@H](C)OC(=O)C[C@H]1O			> 12.5	15	< 1.2	
CO[C@@H]1[C@@H](O[C@@H]2O[C@H](C)[C@@H](O[C@H]3C[C@@](C)(O)[C@@H](O)[C@H](C)O3)[C@H](N(C)C)[C@H]2OC(=O)c2ccc(F)cc2C(F)(F)F)[C@@H](CC=O)C[C@@H](C)[C@@H](O[C@H]2CC[C@H](N(C)C)[C@@H](C)O2)/C=C/C=C/C[C@@H](C)OC(=O)C[C@H]1O			1.2	3.54	3	
